# Data published in patent publication US12178825B2, “Method and compositions for forming a copper-containing complex and uses thereof” (COLD SPRING HARBOR LABORATORY, priority 2017, dated 2024).
# Entries after “also recorded” stand apart in the source; their conditions may differ.
# How the values were obtained:
# PTP1B1-321 = molecular target: T1, PTP1B1-321 (Homo sapiens, UniProt P18031); test: PTP1B phosphatase activity assay, short form; assay type: biochemical
# T1 construct: C-terminally truncated PTP1B (1-321); made in house; host or cells: Escherichia coli BL21 (DE3)-RIL
# T1 sequence (P18031 1-321): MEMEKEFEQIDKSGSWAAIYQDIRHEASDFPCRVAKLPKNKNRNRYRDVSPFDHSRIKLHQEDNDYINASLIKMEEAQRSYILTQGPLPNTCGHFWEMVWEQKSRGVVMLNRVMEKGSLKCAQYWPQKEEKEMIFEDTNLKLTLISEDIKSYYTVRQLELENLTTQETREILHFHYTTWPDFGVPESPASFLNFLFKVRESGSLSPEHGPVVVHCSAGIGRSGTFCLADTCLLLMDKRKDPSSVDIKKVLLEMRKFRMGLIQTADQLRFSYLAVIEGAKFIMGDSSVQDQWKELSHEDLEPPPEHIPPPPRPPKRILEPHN
# Description: All common reagents were obtained from Thermo Fisher Scientific (Waltham, MA) or Sigma-Aldrich (St. Louis, MO). Difluoro-4-methylumbelliferyl phosphate (DiFMUP) was obtained from Invitrogen (cat #D22065). Solid black 384-well plates (cat #3573) for phosphatase assays were from Corning Incorporated (Corning, NY).
# Wild-type PTP1B containing a His-tag was expressed in Escherichia coli BL21 (DE3)-RIL using LB. Cells were resuspended in lysis buffer (50 mM Hepes pH 7.2, 150 mM NaCl, 10 mM imidazole, 2 mM TCEP) with cOmplete EDTA-free Protease Inhibitor Cocktail (Roche), and then lysed using a sonicator at 4° C. Lysates were clarified by centrifugation. Initial protein purification was by gravity flow, nickel column chromatography. Protein was used immediately or stored at −80° C. in 50 mM HEPES pH 7.4, 100 mM NaCl, 2 mM dithiothreitol and 25% glycerol.
# [1] = ESI-MS analysis of complex formation with copper salts; assay type: binding
# Description: (§1) Eight equivalents of M(NO3)2·xH2O or MSO4·xH2O (M=Cu, Zn) were reacted with 1 eq. of DPM-1001 (1 mM in H2O). The reaction solutions were stirred at RT, 40° C. and 80° C. for 2 h. Mass spectra were recorded on a Bruker Esquire 6000 HCT quadrupole ion trap instrument (Bruker Daltonik GmbH, Leipzig, Germany), equipped with an electrospray ionization (ESI) source. Generation of the molecular formula of the DPM-1001/Cu(II) species and the comparison between the theoretical (simulated) and the measured isotopic patterns was performed using the DataAnalysis 4.0 software (Bruker).
# Eight equivalents of M(NO3)2·xH2O or MSO4·xH2O were reacted with 1 eq. of DPM-1001, DPM-1003 or analog 2 (1 mM in H2O). The reaction solutions were stirred at RT, 40° C. and 80° C. for 2 h. Each sample was diluted 5-fold in 50% methanol, 0.1% formic acid and loaded into a 500 μL syringe. A Thermo Vantage triple quadrupole mass spectrometer (Thermo Scientific), equipped with an HESI spray source was coupled to an Accela HPLC system (Thermo Scientific). Mobile phase A consisted of 0.1% formic acid and mobile phase B consisted of 0.1% formic acid in methanol. Isocratic flow was set to 50% B at 200 μL/min. 200 μl samples were injected into the LC flow line via syringe pump at 10 μL/min and electrosprayed into the Vantage triple quadrupole mass spectrometer. A spray voltage of 4.3 kV was used along with a capillary temperature of 350° C. Each full MS scan was 0.5 s and data were collected with a scan range of 200 m/z to 900 m/z over 1 min.
# Binding of compounds of Formula I other than DPM-1001 was also confirmed. In an ESI-MS test, compound DPM-1013 as hydrochloride salt was dissolved in distilled water at a concentration of 2 mM freshly before testing. It was then mixed with an equal volume copper sulfate (16 mM) or copper chloride solution (16 mM) for 2 h, rendering a concentration of DPM-1013 at 1 mM and the copper salt 8 mM. The mixture was then further diluted 100-fold before injection into an ESI-MS, making a final concentration of DPM-1013 of 10 μM and Cu 80 μM in the test.
# Binding percentage=peak intensity of all DPM-1013-Cu complex/(peak intensity of all DPM-1013-Cu complex+peak intensity of free DPM-1013).
# [2] = ESI-MS analysis of complex formation with zinc salts; assay type: binding; details: ZnSO4 or Zn(NO3)2, ESI-MS
# Description: as §1
# [3] = system: insulin receptor β subunit, AKT; test: Insulin signaling in liver of treated mice; assay type: in vivo
# From the text: The antibodies used in the study were purchased from: Upstate Biotechnology (pTyr, catalog 05-321, clone 4G10); Invitrogen (pY1162/1163-IR-β, catalog 700393, clone 97H9L7); Santa Cruz Biotechnology Inc. (IR-β, catalog sc-711, clone C711); Cell Signaling
# Technology (JAK2, catalog 3230, clone D2E12; p-T308 AKT (catalog 13038, clone D25E6); AKT (catalog 4691, clone C67E7) and Sigma-Aldrich (actin, catalog A2228, clone AC-74).
# All protocols were approved by the Institutional Animal Use and Care Committee of Cold Spring Harbor laboratory. 10 week-old male mice fed chow diet or high-fat diet (D12492) were acclimatized for 10 days under standard conditions before experiments. Mice were injected intraperitoneally (i.p.) once daily with vehicle, 5 mg/kg of DPM-1001 intraperitoneally or orally for 50 days. Mice were euthanized after 6 h of fasting, and serum samples were collected to measure the metabolic parameters and tissue samples were collected for studying changes in signaling.
# metallothionein = test: Metallothionein quantitation in liver and brain; assay type: in vivo, mouse; details: TX mice
# Description: Tissue samples (100 mg liver or 25 mg brain) were rinsed in PBS to remove excess blood and homogenized using a dounce homogenizer on ice (PBS, 1% tween). The samples were centrifuged at 5000×g for 5 minutes and the supernatant was collected. Total protein in the supernatant was measured using Bradford reagent and an equal amount of each sample (based on protein concentration) was used to measure metallothionein levels. Mouse metallothionein Elisa kit was purchased from Lifespan Biosciences, Inc and the assay was performed according to the users manual.
# TNBC cells = test: Cellular copper levels by ICP-MS; assay type: cell-based
# Description: TNBC cells (1×10^6) were plated in a 10-cm culture dish in growth medium. About 24 h after seeding cells, they were untreated or treated with DPM-1001 (2 uM) or DPM-1003 (2 uM) for 2 h. Following which, cells were washed three times with PBS. Then, 215 μl of concentrated nitric acid (BDH Aristar Ultra) was added to each sample and incubated overnight. Samples were boiled at 95° C. for 1 h. and approximately 150 μl of each sample was further diluted in 2 ml 2% nitric acid (made freshly from concentrated nitric acid and Milli-Q water). Samples were analyzed on a Thermo Fisher iCAP Qc ICP mass spectrometer in kinetic energy discrimination (KED) mode against a calibration curve of known copper and phosphorus concentrations, with Ga (20 μg/l, Inorganic Ventures) as an internal standard. Each experiment was carried out twice and each condition was repeated in at least triplicate.
structure (smiles),measurement,setting,value
COC(=O)CCC(C)C1CCC2C3C(O)CC4CC(NCCCCNCc5ccccn5)CCC4(C)C3CCC12C (centres unmarked) [DPM-1001],reversibility of inhibition of PTP1B1-321,"PTP1B1-321; enzyme-inhibitor complex diluted, activity recovery monitored",reversibly
same,time dependent change in the IC50 for PTP1B1-321,PTP1B1-321; varying incubation times,no obvious time dependent change
same,complex formation with copper,[1],Formed a Stable Complex with Copper(II)
same,complexation with Zn(II),[2],no complexation
same,AKT phosphorylation,[3],phosphorylation of AKT; also recorded: enhanced AKT phosphorylation
same,tyrosine phosphorylation of insulin receptor β subunit,"[3]; insulin-stimulated, orally or intraperitoneally",increased insulin-stimulated insulin receptor phosphorylation; also recorded: marked increase in β-subunit phosphorylation
same,metallothionein levels,metallothionein,prevents elevated metallothionein expression in liver; also recorded: lowered metallothionein levels in the liver and the brain
same,cellular copper levels,TNBC cells,depletion of copper; also recorded: reduces cellular copper levels
